The record followed here is patent publication US10071102B2, “Injectable mirtazapine for treating appetite loss and nutritional disorders in cats” (VIRBAC, priority 2013, dated 2018).

The test system of the experiment is appetite of cats. In words: Food consumption (appetite) of stressed healthy cats after dose administration. It counts as in vivo, cat. The note with it: subcutaneous injection 3.75 mg vs oral 3.75 mg. An excerpt: The purpose of these tests is to evaluate the effect of administration of mirtazapine by subcutaneous injection on the appetite of cats as compared to dose administration by the oral route (positive control) and a control (injection of saline solution, negative control). The healthy cats selected were previously acclimated for at least seven days prior to testing; during this period, they were examined by a veterinarian. They were then divided into three groups of two cats each according to a cross-over experimental design, with each cat receiving each of the 3 treatments according to a predetermined sequence: • 0.5 ml of saline (0.9% sodium chloride) was administered by subcutaneous injection in the interscapular area to the T0 group which represents the negative control; • the group T1 received a subcutaneous injection, in the interscapular area, of 0.5 ml of the tested formulation of mirtazapine (represents a dose administration of 3.75 mg of mirtazapine); • the group T3 instead received 0.25 ml (represents a dose administration of 3.75 mg of mirtazapine) of the liquid formulation by means of forced administration (syringe) in the mouth and represents the positive control group. […] The food consumption is represented in FIGS. 2A (food consumption measured at each point) and 2B (cumulative food consumption).

Turning to `CN1CCN2c3ncccc3Cc3ccccc3C2C1` (centres unmarked) [mirtazapine, 1,2,3,4,10,14b-hexahydro-2-methylpyrazino(2,1-a)pyrido(2,3-c)benzazepine], the “duration of appetite induction compared with oral administration” value is reported as “inducing appetite for a longer time period” and the “increase in appetite (food consumption) compared with same dose by oral route” value is “as effective as the administration of the same dose by oral route”.
